Laboratory results as given in patent US11186606B2, “Compositions and methods of modulating the immune response by activating alpha protein kinase 1” (Shanghai Yao Yuan Biotechnology Co., Ltd., priority 2017, dated 2021).

How the values were obtained:
[1] = tested on: phosphatase activity in the serum; experiment: Incubation of H1b-ADP with FBS, product analysed by LC-MS; type: in vitro ADME, bovine
Description: (§1) FBS contains 110-352 U/ml alkaline phosphatase.

[2] = tested on: ALPK1; experiment: IL8 secretion in HEK293 cells (IL8 ELISA) as indicator of ALPK1 activation; conditions: added to the FBS-containing medium, HEK293 cells, IL8 secretion
Method: (§2) We pre-mixed H1b-ADP with phosphatase inhibitor sodium orthovanadate (Na3VO4) before incubation with FBS.
(§3) In these experiments, serial dilutions of the compounds were added to the tissue culture media of HEK293 cells with (FIG. 27B, FIG. 28B, FIG. 29B) or without (FIG. 26, FIG. 27A, FIG. 28A, FIG. 29A) 10% FBS, as indicated in the figures. After 4 hours, the cell supernatant was collected and analyzed for IL8 concentration using IL8 ELISA (BD) as an indicator of ALPK1 activation.

[3] = tested on: mouse liver and lung tissue; experiment: Chemokine and cytokine expression in liver and lung tissue after subcutaneous injection (qPCR); type: in vivo; conditions: C57 mice, three hours
Method: In additional experiments, Compound 1 was injected subcutaneously into 7 week old C57 mice at concentrations of 2, 10, 50, and 200 nmol. Tissue was harvested three hours later and RNA extracted. Quantitative PCR (qPCR) was performed to determine the tissue expression levels Cxcl1, Cxcl11, IL1b, and IL6 in mouse liver (FIG. 32A) and lung (FIG. 32B) tissue. Additional chemokines and cytokines were assayed in the lung tissue.

[4] = tested on: CT26 cells; experiment: CT26 tumor xenograft model, tumor volume; type: in vivo, BALB/c mice
Method: We used a CT26 tumor xenograft model to test the anti-cancer activity of H1b-ADP. Tumor cells (2×10^5 per 100 uL CT26 cells) were inoculated subcutaneously into the right flank of BALB/c mice. At day 6, mice whose tumors had reached 3-5 mm in diameter were randomized and grouped into three groups (n=8 each group), control, HMP-1bP (580 ug), and H1b-ADP (1.2 ug). Injections were performed using a total volume of 20 uL at days 6, 8, 10, 12, and 14 post inoculation. Tumor volumes were calculated every 2 days from caliper measurements of tumor dimension using the formula (L×W^2)/2, where L is the longer measurement.
To test whether H1b-ADP could augment an anti-tumor response by a checkpoint inhibitor, we tested the effects of co-administration with an anti-PD1 antibody. Tumor cells (2×10^5 per 100 μL CT26 cells) were inoculated subcutaneously into the left and right flanks of BALB/c mice. At day 7, mice whose tumors had reached 5 mm in diameter were randomized and grouped (n=8 each group) into the following four groups: anti-PD1 antibody; rat IgG; H1b-ADP+rat IgG; H1b-ADP+anti-PD1 antibody. We utilized RMP1-14 as the anti-PD1 antibody (10 mg/kg) and a rat IgG 2a (2A3) as the control IgG. Each of the anti-PD-1 antibody and the control IgG was administered intraperitoneally in a 200 μL volume on days 6, 10, 12, and 17 post-inoculation. H1b-ADP (6.2 μg) was intratumorally injected in a 20 μL volume at day 6, 8, 10, 12, and 15. Tumor volumes were calculated every 2 days from caliper measurements of tumor dimensions using the formula (L×W^2)/2, where L is the longer measurement. The results are shown in FIG. 13A for injected tumors and FIG. 13B for distant tumors. […]
The experiment was carried out as combo experiments of anti-PD1 except for the following variations. At day 6, mice whose tumors had reached 5 mm in diameter were randomized and grouped into the following four groups: c-di-AM(PS)2; PBS; H1b-ADP; H1b-ADP+c-di-AM(PS)2. We utilized c-di-AM(PS)2 as the STING agonist. Each of the c-di-AM(PS)2 (1 μg) and H1b-ADP (6.2 μg) was administered intratumorally in a 20 μL volume on days 6, 7, and 9 post-inoculation.
The experiment was carried out as combo experiments of anti-PD-1 except for the following variations. At day 6, mice whose tumors had reached 5 mm in diameter were randomized and grouped into the following four groups: anti-CD4 antibody (GK1.5 clone, BE0003-1, BioXcell); rat IgG; H1b-ADP+rat IgG; H1b-ADP+anti-CD4 antibody. Each of the anti-CD4 antibody (200 μg) and the control IgG (200 μg) was administered intraperitoneally in a 200 μL volume on days 3, 4, 8 post-inoculation. H1b-ADP (6.2 μg) was administered intratumorally in a 20 μL volume on days 6, 8, 10, 12, 14 post-inoculation.
The experiment was carried out as combo experiments of anti-PD-1 except for the following variations. At day 6, mice whose tumors had reached 5 mm in diameter were randomized and grouped into the following four groups: Resquimod; PBS; H1b-ADP; H1b-ADP+Resquimod. Resquimod (10 μg) and H1b-ADP (6.2 μg) were administered intratumorally in a 20 μL volume on days 6, 8, 11 post-inoculation.
We used a CT26 tumor xenograft model to test the anti-cancer activity of H1b-ADP derivative Compounds 1 and 2. Tumor cells (2×10^5 per 100 uL CT26 cells) were inoculated subcutaneously into the right flank of BALB/c mice. At day 7, mice whose tumors had reached 3-5 mm in diameter were randomized and grouped into three groups (n=9 each group), control, Compound 1 (50 nmol), and Compound 2 (50 nmol). Injections were performed using a total volume of 20 uL at days 7, 9, and 11 post inoculation. Tumor volumes were calculated every 2 days from caliper measurements of tumor dimension using the formula (L×W^2)/2, where L is the longer measurement.

[5] = biological target: T1, ALPK1 (Homo sapiens, UniProt Q96QP1); experiment: IL8 secretion in HEK293 cells (IL8 ELISA) as indicator of ALPK1 activation; conditions: without FBS, 4 hours
T1 sequence (Q96QP1 whole entry): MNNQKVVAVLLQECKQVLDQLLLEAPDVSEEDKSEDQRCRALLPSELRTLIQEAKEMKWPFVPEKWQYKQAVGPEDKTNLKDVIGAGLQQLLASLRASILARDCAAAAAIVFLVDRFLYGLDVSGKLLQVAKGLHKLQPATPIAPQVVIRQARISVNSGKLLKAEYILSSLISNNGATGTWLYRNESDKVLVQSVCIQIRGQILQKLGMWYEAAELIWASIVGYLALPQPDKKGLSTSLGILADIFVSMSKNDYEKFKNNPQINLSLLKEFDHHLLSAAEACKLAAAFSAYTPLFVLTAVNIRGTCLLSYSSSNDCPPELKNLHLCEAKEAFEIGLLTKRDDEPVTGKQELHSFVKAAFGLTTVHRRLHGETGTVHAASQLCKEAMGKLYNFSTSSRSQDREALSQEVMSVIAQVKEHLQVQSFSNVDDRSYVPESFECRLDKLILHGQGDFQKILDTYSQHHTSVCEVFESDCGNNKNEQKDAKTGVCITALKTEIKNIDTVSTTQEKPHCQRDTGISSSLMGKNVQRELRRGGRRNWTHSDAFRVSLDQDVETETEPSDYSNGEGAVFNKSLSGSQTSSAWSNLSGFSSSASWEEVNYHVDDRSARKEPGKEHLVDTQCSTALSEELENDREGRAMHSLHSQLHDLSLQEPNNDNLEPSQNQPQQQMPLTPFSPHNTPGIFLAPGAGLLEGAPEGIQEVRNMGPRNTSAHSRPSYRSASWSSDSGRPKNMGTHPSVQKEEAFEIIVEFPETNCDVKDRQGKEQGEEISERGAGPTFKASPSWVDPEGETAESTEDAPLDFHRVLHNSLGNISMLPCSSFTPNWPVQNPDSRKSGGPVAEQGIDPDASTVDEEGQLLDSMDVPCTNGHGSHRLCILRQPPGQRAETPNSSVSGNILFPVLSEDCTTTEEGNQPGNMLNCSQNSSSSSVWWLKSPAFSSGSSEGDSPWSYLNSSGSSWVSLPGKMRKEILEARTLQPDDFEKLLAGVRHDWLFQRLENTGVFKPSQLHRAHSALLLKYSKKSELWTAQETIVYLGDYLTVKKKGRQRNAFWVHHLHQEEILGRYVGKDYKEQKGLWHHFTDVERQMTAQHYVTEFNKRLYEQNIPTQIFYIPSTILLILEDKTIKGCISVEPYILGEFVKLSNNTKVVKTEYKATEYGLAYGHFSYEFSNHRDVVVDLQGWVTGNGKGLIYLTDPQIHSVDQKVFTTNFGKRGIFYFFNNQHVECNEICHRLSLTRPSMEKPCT
Method: as §2, §3

[6] = biological target: T1, ALPK1; experiment: Cell-free kinase assay of ALPK1 autophosphorylation (Western, anti-phospho-threonine); type: biochemical; conditions: ALPK1 2 nM, ATP; H1b-ADP 10, 1, 0.2 nM; HBP and HMP-1bP 1, 10, 100 nM
Method: ALPK1 activation results in its autophosphorylation. Accordingly, we next asked whether the binding of H1b-ADP to ALPK1 was sufficient to induce ALPK1 autophosphorylation. Phosphorylation assays were performed according to standard protocols. Briefly, ALPK1 was incubated (2 nM, 25° C., 1 h) in assay buffer (20 al, 25 mM HEPES pH 7.5, 50 mM KCl, 0.1 mM EDTA, 0.1 mM EGTA, 2 mM DTT, 1.5 mM CaCl2, 10 mM MgCl2) with ATP and chemically synthesized HBP, HMP-1bP, or H1b-ADP followed by denaturing gel electrophoresis and Western analysis with an anti-phospho-threonine antibody (CST) to detect autophosphorylation of ALPK1. […] The range of concentrations of HBP and HMP-1bP used in this assay (1 nM, 10 nM, 100 nM) was 10-fold higher than that used for H1b-ADP.

[7] = biological target: T1, ALPK1; experiment: In vitro kinase assay of ALPK1-dependent TIFA phosphorylation; type: biochemical; conditions: for phosphorylation of the ALPK1 substrate TIFA: FIG. 7, chemically-synthesized compounds
Method: We performed an in vitro kinase assay with H1b-ADP and H1b-ADP-6L along with ALPK1 protein (2 nM), and TIFA protein (1.6 uM) in kinase buffer containing 50 uM ATP. TIFA phosphorylation was analyzed by denaturing gel electrophoresis followed by western blotting using an anti-phosphothreonine antibody. H1b-ADP or H1b-ADP-6L was added at 2 nM, 0.4 nM, 80 pM, 16 pM, and 3 pM.
To test this, we performed an in vitro kinase reaction for ALPK1-dependent TIFA phosphorylation in the presence of either HBP or HIdA purified from E. coli containing inactivated HIdE, or in the presence of HBP and HIdA purified from the same HIdE wild-type E. coli used in the previous experiments. Phosphorylated TIFA (three concentrations, 1%, 0.2% and […]) was detected as described above by denaturing gel electrophoresis followed by Western analysis.

[8] = biological target: T1, ALPK1; experiment: IL-8 and TNFα mRNA expression in HEK293 cells with control or ALPK1-directed siRNA; type: cell-based; set-up: ALPK1-directed small interfering RNA (siRNA) to silence ALPK1 expression in HEK293 cells; endogenous in cells; host or cells: HEK293; conditions: for IL-8 mRNA expression / TNFα mRNA expression: 4 hours, control vs ALPK1-directed siRNA; for concentration required to induce IL-8 and TNFα mRNA expression: FIG. 5
Method: To test whether HBP, HMP-1bP, and H1b-ADP were able to induce cytokine expression in an ALPK1 dependent manner, we used an ALPK1-directed small interfering RNA (siRNA) to silence ALPK1 expression in HEK293 cells. Cells were plated (1×10^4 cells/well) into 96-well plates and transfected with either control siRNA or ALPK1-directed siRNA according to the manufacturer's protocols (Lipofectamine™ RNAiMax™, Invitrogen 13778075). Following 2 days of culture, either (1) HBP (500 uM, 100 uM, 20 uM, FIG. 2A-2B) (2) HMP-1bP (500 uM, 100 uM, FIG. 3A-3B), (3) H1b-ADP (100 nM, 20 nM, 4 nM, 0.8 nM, FIG. 4A-4B) was added to culture medium and cells were harvested 4 hours later.

[9] = biological target: T1, ALPK1; experiment: Thermal shift assay (SYPRO Orange) for binding to ALPK1; conditions: ALPK1 7 uM; 1 uM, 5 uM, 25 uM, or 125 uM
Description: The thermal shift assay is widely used to determine the binding of a molecule to a protein of interest. The assay is based on the increase in thermal energy required for denaturation of a protein where another molecule is bound to the protein. SYPRO Orange is a fluorescent compound used in the detection of thermal shift. SYPRO Orange binds to hydrophobic surfaces of the protein, and water strongly quenches its fluorescence. When the protein unfolds, the exposed hydrophobic surfaces bind the dye, resulting in an increase in fluorescence. When another molecule is bound to the protein, an increase in the temperature required for unfolding of the protein is observed.
This assay system was used to determine whether or not chemically synthesized HBP, HMP-1bP, and H1b-ADP directly bind to ALPK1. […] Only H1b-ADP induced a shift of more than 1 degree, at each of the three highest concentrations tested, 5 uM, 25 uM, and 125 uM.

[10] = tested on: bovine alkaline phosphatase; experiment: Incubation of H1b-ADP with bovine alkaline phosphatase; type: biochemical
Description: as §1

SMILES	restoration of H1b-ADP's activity in the cell based assay [2]	autophosphorylation of ALPK1 [6]	phosphorylation of the ALPK1 substrate TIFA [7]	IL-8 mRNA expression [8]	TNFα mRNA expression [8]	concentration required to induce IL-8 and TNFα mRNA expression [8] [µM]	thermal shift / direct binding to ALPK1 [9]	also measured
Nc1ncnc2c1ncn2[C@@H]1O[C@H](COP(=O)(O)O)[C@@H](O)[C@H]1O [AMP]	could restore H1b-ADP's activity							phosphatase activity in serum ([1]; pre-treatment of H1b-ADP before serum incubation): inhibited phosphatase activity and the inhibition was AMP dose-dependent
CC(=O)OC[C@@H](OC(C)=O)[C@H]1O[C@@H](OP(=O)(O)OP(=O)(O)OC[C@H]2O[C@@H](n3cnc4c(N)ncnc43)[C@H](O)[C@@H]2F)[C@@H](OC(C)=O)[C@@H](OC(C)=O)[C@@H]1OC(C)=O [Compound 1, (2S,3S,4S,5R,6R)-2-(((((((2R,3S,4S,5R)-5-(6-amino-9H-purin-9-yl)-3-fluoro-4-hydroxytetrahydrofuran-2-yl)methoxy)(hydroxy)phosphoryl)oxy)(hydroxy)phosphoryl)oxy)-6-((R)-1,2-diacetoxyethyl)tetrahydro-2H-pyran-3,4,5-triyl triacetate]								dose activating an inflammatory response in lung tissue [3]: 200 nmol; dose activating an inflammatory response in liver tissue ([3]; 2 nmole = 1.2 μg): ≤ 2 nmol; tumor growth ([4]; Example 18: 50 nmol, injections days 7, 9, 11): reduced tumor growth; IL8 secretion in HEK293 cells [5]: activate IL8 secretion
O=P(O)(O)OC[C@@H](O)[C@H]1O[C@@H](OP(=O)(O)O)[C@@H](O)[C@@H](O)[C@@H]1O [HBP, D-glycero-β-D-manno-heptose 1,7-bisphosphate]		not	only in the presence of H1b-ADP	increased in an ALPK1-dependent manner	increased in an ALPK1-dependent manner	100	Neither HBP nor HMP-1bP were able to induce a thermal shift	anti-tumor activity in a murine tumor model ([4]; summary statement): not
Nc1ncnc2c1ncn2[C@@H]1O[C@H](COP(=O)(O)OP(=O)(O)O[C@@H]2O[C@H]([C@@H](O)CO)[C@@H](O)[C@H](O)[C@@H]2O)[C@@H](O)[C@H]1O [Compound H1b-ADP-6L, L-glycero-D-manno-heptose-1β-ADP]								TIFA phosphorylation (ALPK1-dependent signaling) ([7]; ALPK1 2 nM, TIFA 1.6 uM, 50 uM ATP, 2 nM to 3 pM): activated ALPK1-dependent signaling in a manner similar to H1b-ADP
O=P(O)(O)O[C@@H]1O[C@H]([C@H](O)CO)[C@@H](O)[C@H](O)[C@@H]1O [HMP-1bP, D-glycero-β-D-manno-heptose-1-phosphate]		not	only in the presence of H1b-ADP	increased in an ALPK1-dependent manner	increased in an ALPK1-dependent manner	100	Neither HBP nor HMP-1bP were able to induce a thermal shift	tumor growth ([4]; intratumoral, days 6, 8, 10, 12, 14, HMP-1bP 580 ug, H1b-ADP 1.2 ug): not
[Na+].[Na+].[Na+].[O]=[V]([O-])([O-])[O-] [Na3VO4, sodium orthovanadate]	could restore H1b-ADP's activity							phosphatase activity (H1b-ADP hydrolysis) [10]: blocked by increasing amount of Na3VO4; H1b-ADP hydrolysis ([1]; 1 mM, pre-mixed with H1b-ADP before incubation with FBS): effectively inhibited H1b-ADP hydrolysis
